Reference: ChEMBL document CHEMBL3507680, “University of Dundee, Gates Library screen for HepG2 cell viability”
Values joined by “and” are separate entries in the source; they are usually repeats but may differ in a detail not shown here. Equal values may be shown once.

Test: Human HepG2 cell viability assay in 384 well format
Format: toxicity, cell-based
Set-up: dose 125 nL, time 70.5 hour; cytotoxicity at 70.5 h: concentration not given beside the values
Conditions: HepG2 cells, read-out: Inhibition

| SMILES | cytotoxicity at 70.5 h |
| --- | --- |
| Cn1nc(C(=O)NCc2ccccn2)c2c1CCS(=O)(=O)C2 | 88.4% |
| Fc1cccc(Nc2nc(N3CCCC3)nc3c2CNCC3)c1 | 80.4% |
| Cc1ccc(S(=O)(=O)N2C[C@H]3C[C@H](NC(=O)c4cc[nH]n4)[C@H]3C2)cc1 | 61.6% |
| COc1ccccc1NC(=O)c1ccc(C)n1C | 96% |
| Cc1cc(NC2CCc3nc(C(C)C)nn3C2)n2ncnc2n1 (stereo not drawn) | 84.4% |
| Cc1n[nH]c(C2CN(CC(=O)NCCC3=CCCCC3)CCO2)n1 (stereo not drawn) | 76.6% |
| OC1COCCN(Cc2cc(-c3ccccc3OC(F)(F)F)no2)C1 (stereo not drawn) | 60% |
| Cc1nc(CC(C)C)cc(C(=O)N2C[C@@H](N(C)C)[C@H](C(C)C)C2)n1 | 67% |
| NCC1CCN(C2CCN(c3ccc(-c4ccco4)cc3)CC2)C1 (stereo not drawn) | 102% |
| O=C(CCNCC(F)(F)F)N1CCC(Nc2cccnn2)CC1 | 66.1% |
| Cc1noc(CN2CCOC(CN(C)C)C2)n1 (stereo not drawn) | 70.1% |
| Cc1noc(C)c1C(=O)N1CCCC1c1c(C)nn(C)c1Cl (stereo not drawn) | 103% |
| CCc1nc(CN(C)C2CCN(Cc3cnc(C)cn3)C2)no1 (stereo not drawn) | 66% |
| COc1ccc(CNC(Cc2ccsc2)c2ccc(C)cn2)cc1OC.Cl (stereo not drawn) | 91.5% |
| Cl.Cl.Clc1cccc(C[C@@H]2NCCC[C@@H]2Nc2cccc(Cl)c2)c1 | 105% |

Test: Human HepG2 cell viability dose-response assay
Format: toxicity, cell-based
Conditions: not given

| SMILES | BOTTOM | HILLSLOPE | TOP | pXC50 |
| --- | --- | --- | --- | --- |
| Cn1nc(C(=O)NCc2ccccn2)c2c1CCS(=O)(=O)C2 | 0 | 0 | 0 | < 4.53 |
| Fc1cccc(Nc2nc(N3CCCC3)nc3c2CNCC3)c1 | – | 8.053 and 11.8 | 102.5 and 101.7 | 5.055 and 5.01 |
| Cc1ccc(S(=O)(=O)N2C[C@H]3C[C@H](NC(=O)c4cc[nH]n4)[C@H]3C2)cc1 | -15.24 and -16.22 | 0.6106 and 0.5978 | 100 | 5.239 and 5.299 |
| COc1ccccc1NC(=O)c1ccc(C)n1C | -9.133 and -11.57 | 2.979 and 2.832 | 100 | 5.661 and 5.693 |
| Cc1cc(NC2CCc3nc(C(C)C)nn3C2)n2ncnc2n1 (stereo not drawn) | 0 | 0 | 0 | < 4.53 |
| Cc1n[nH]c(C2CN(CC(=O)NCCC3=CCCCC3)CCO2)n1 (stereo not drawn) | 0 | 0 | 0 | < 4.53 |
| OC1COCCN(Cc2cc(-c3ccccc3OC(F)(F)F)no2)C1 (stereo not drawn) | 0 | 0 | 0 | < 4.53 |
| Cc1nc(CC(C)C)cc(C(=O)N2C[C@@H](N(C)C)[C@H](C(C)C)C2)n1 | 0 | 0 | 0 | < 4.53 |
| NCC1CCN(C2CCN(c3ccc(-c4ccco4)cc3)CC2)C1 (stereo not drawn) | -8.648 and -4.813 | 7.574 and 7.233 | 102.1 and 102.4 | 5.593 and 5.596 |
| O=C(CCNCC(F)(F)F)N1CCC(Nc2cccnn2)CC1 | 0 | 0 | 0 | < 4.53 |
| Cc1noc(CN2CCOC(CN(C)C)C2)n1 (stereo not drawn) | 0 | 0 | 0 | < 4.53 |
| Cc1noc(C)c1C(=O)N1CCCC1c1c(C)nn(C)c1Cl (stereo not drawn) | 0 | 0 | 0 | < 4.53 |
| CCc1nc(CN(C)C2CCN(Cc3cnc(C)cn3)C2)no1 (stereo not drawn) | 0 | 0 | 0 | < 4.53 |
| COc1ccc(CNC(Cc2ccsc2)c2ccc(C)cn2)cc1OC.Cl (stereo not drawn) | -6.281 and -3.457 | 2.493 and 1.7 | 86.66 and 100 | 5.471 and 5.341 |
| Cl.Cl.Clc1cccc(C[C@@H]2NCCC[C@@H]2Nc2cccc(Cl)c2)c1 | – | 19.49 and 7.416 | 101.7 and 101.8 | 5.461 and 5.474 |
